How the values were obtained:
ELuc-HepG2 cells [1] = tested on: ELuc-HepG2 cells
CYPs-ELuc-HepG2 cells [2] = tested on: CYPs-ELuc-HepG2 cells
CYPs-ELuc-HepG2 cells [3] = tested on: CYPs-ELuc-HepG2 cells; remark: listed apart in the source
ELuc-HepG2 cells [4] = tested on: ELuc-HepG2 cells; remark: listed apart in the source
ELuc-HepG2 cells [5] = tested on: ELuc-HepG2 cells; remark: listed apart in the source
CYPs-ELuc-HepG2 cells [6] = tested on: CYPs-ELuc-HepG2 cells; remark: listed apart in the source
wild-type HepG2 cells = conditions: cited from earlier work
CYPs-HepG2 cells = conditions: cited from earlier work

| Compound | bioluminescence intensity in real time (ELuc-HepG2 cells [1]) | bioluminescence intensity in real time (CYPs-ELuc-HepG2 cells [2]) | bioluminescence intensity (ELuc-HepG2 cells [4]) | bioluminescence intensity (CYPs-ELuc-HepG2 cells [3]) | cytotoxicity (wild-type HepG2 cells) | cytotoxicity (CYPs-HepG2 cells) | also measured |
| --- | --- | --- | --- | --- | --- | --- | --- |
| COc1cc(NC(C)CCCN)c2ncccc2c1 (centres unmarked) [primaquine] | Time- and concentration-dependent decreases | much faster decrease |  |  |  |  | time at which the first IC50 value was noted (ELuc-HepG2 cells [1]): 22 h; decrease of bioluminescence intensity under CYP2D6 inhibitor (CYPs-ELuc-HepG2 cells [2]): partially abolished; time at which the first IC50 value was noted (CYPs-ELuc-HepG2 cells [2]): 12 h |
| CCCCCCCCCCCCOS(=O)(=O)[O-].[Na+] [SDS, sodium dodecyl sulfate] |  |  |  |  |  |  | concentration-response curves compared with ELuc-HepG2 cells (bioluminescence) (CYPs-ELuc-HepG2 cells [3]; 3 days): very similar concentration-response curves |
| Nn1nnc2ccccc21 [ABT, 1-aminobenzotriazole] |  |  | not affected | not affected |  |  |  |
| OC[C@@H](O)[C@@H](O)[C@H](O)[C@H](O)CO [D-mannitol] |  |  | no remarkable changes | no remarkable changes |  |  | viability by WST-1 assay (ELuc-HepG2 cells [5]): no remarkable changes; bioluminescence intensities during long-term culture (CYPs-ELuc-HepG2 cells [3]): no significant changes; viability by WST-1 assay (CYPs-ELuc-HepG2 cells [6]): no remarkable changes |
| aflatoxin B1 | no decrease | time- and concentration-dependent decreases | did not decrease | concentration-dependent decrease | not | showed cytotoxicity | first IC50 value (ELuc-HepG2 cells [1]): not observed; IC50 values during long-term culture (CYPs-ELuc-HepG2 cells [3]): almost unchanged; aflatoxin B1 concentration-dependent decrease of bioluminescence intensity under CYP inhibitor (CYPs-ELuc-HepG2 cells [3]): completely diminished; decrease of bioluminescence intensity under CYP3A4 inhibitor (CYPs-ELuc-HepG2 cells [2]): partially diminished; IC50 (CYPs-ELuc-HepG2 cells [2]; read-out: first IC50 value): 7.9 µM |
| COc1cc2c(c3oc4cccc(O)c4c(=O)c13)[C@@H]1C=CO[C@@H]1O2 [sterigmatocystin] |  |  |  |  | not | showed cytotoxicity |  |

Source: paper PMC7999318 (International Journal of Molecular Sciences, 2021)
